Data on 19 compounds can be found in US20160039778A1, “TRPV-1 RECEPTOR ANTAGONIST COMPOUND DERIVED FROM 1,3,4-THIADIAZOLE ALKYLAMIDES AND CHALCONES” (UNIVERSIDAD DE CONCEPCION, priority 2012, published 2016).

Series [1] concerns the target T1, rat TRPV-1 receptor (Rattus norvegicus, UniProt O35433).
T1 construct: expressed in transfected cells; host or cells: HEK-293T
The series is described as follows: Dose response curve, temperature activation of the TRPV-1 receptor in transfected HEK-293T cells. It is filed as cell-based. The conditions noted are these: relative fluorescence at 50° C., HEK-293T cells transfected with rat TRPV-1, two independent experiments, ± standard deviation. The protocol: The synthesized compounds were evaluated in HEK-293T cell cultures transfected with cDNA from rat TRPV receptors. […] The influx of calcium was measured with a fluorescent probe, Fluo 4-AM, as in the presence of an antagonist the calcium influx is blocked by the inactivation of the TRPV-1 receptor and cellular fluorescence decreases.
The HEK-293T cells were cultured in a DMEM medium supplemented with 5% fetal bovine serum, 50 U/ml penicillin, […] streptomycin and 2 mM L-glutamine. The cultures were kept at 37°, in a 5% CO2 environment, with 80% relative humidity.
The HEK-293T cells were transfected with rat TPRV-1 pcDNA3, 97 μOpti-MEM and 3 μL of Lipofectamine 2000 were added to a reaction tube and to a second tube 1 μg of DNA and one volume of Opti-MEM were added to complete 100 μL. Both tubes were incubated for 10 minutes, after which they were mixed and incubated for another 15 minutes.
After 48 hours of transfection the cells were treated with 200 μL of trypsin, left to incubate for 5 minutes at room temperature, then gently pipetted and transposed to a 15 ml tube. After being centrifuged at a speed of 6,000 rpm for 10 minutes, the cells were re-suspended in 1 ml of Ringer medium, adding 1 μl of Fluo-4AM 1000×, and incubated at 37° C. for half an hour. After being centrifuged and washed with pH 7.34 PBS 1× to remove the excess probe the cell pellet was re-suspended in 1.5 ml of Ringer medium.
Once the rat TRPV-1 receptor had been transfected, Fluo-4 AM charged HEK 293T cells were plated out in 48-well plates at a cellular density of 50,000 cells per well, with a transfection percentage of 40-50%. Subsequently 2 μL/well of each assayed compound were added and the cells left to incubate at room temperature for 5-10 minutes before the execution of the experiment by temperature. The fluorescence measurements were then read on a real time PCR system that allows an increment of 1° C. every 35 seconds from 36° C. to 55° C. for compounds and from 22-56° C. for transfected cells in absence of compounds. Reading of the fluorescence measurement was done using a FAM filter ([…]). […] The values were then normalized, the data being expressed as relative fluorescence, which is the ratio between the fluorescence variation and the base line.
An assay was carried out on temperature activation of the TRPV-1 receptor by incubating the transfected and Fluo-4AM charged HEK-293T cells in the presence of different concentrations of each compound assayed: 1 μM; 0.1 μM; 0.01 μM; 0.003 μM; 0.001μM; 0.0003 μM, 0.0001 μM y 0.00001 μM. The relative fluorescence data obtained at 50° C. was then used to calculate the fluorescence ratio, which is presented as normalized in relation to the relative fluorescence at initial concentration. In this way, the fluorescence ratios obtained through two independent experiments were averaged and expressed with the respective standard deviation.

The conditions of series [2]: literature statement; cited from earlier work.
For series [3], the target named is TRPV1 receptor. The conditions noted are these: cited from earlier work; for selectivity for the TRPV-1 receptor: literature statement.
For series [4] the following is noted: literature statement; cited from earlier work. The source holds these as a separate data set.
The conditions of series [5]: literature statement; cited from earlier work. The source holds these as a separate data set.
Where [6] appears, read: 1,3,4-thiadiazole alkylamide derivatives.
Setting [7] is: read-out: half maximal inhibitory concentration (IC50), TRPV1 antagonist.
[8] abbreviates: literature value, read-out: half maximal inhibitory concentration (IC50), TRPV1 antagonist.

SMILES strings stand for the structures. Like-named read-outs stand apart in the source and are kept apart here.

T1 sequence (O35433 whole entry): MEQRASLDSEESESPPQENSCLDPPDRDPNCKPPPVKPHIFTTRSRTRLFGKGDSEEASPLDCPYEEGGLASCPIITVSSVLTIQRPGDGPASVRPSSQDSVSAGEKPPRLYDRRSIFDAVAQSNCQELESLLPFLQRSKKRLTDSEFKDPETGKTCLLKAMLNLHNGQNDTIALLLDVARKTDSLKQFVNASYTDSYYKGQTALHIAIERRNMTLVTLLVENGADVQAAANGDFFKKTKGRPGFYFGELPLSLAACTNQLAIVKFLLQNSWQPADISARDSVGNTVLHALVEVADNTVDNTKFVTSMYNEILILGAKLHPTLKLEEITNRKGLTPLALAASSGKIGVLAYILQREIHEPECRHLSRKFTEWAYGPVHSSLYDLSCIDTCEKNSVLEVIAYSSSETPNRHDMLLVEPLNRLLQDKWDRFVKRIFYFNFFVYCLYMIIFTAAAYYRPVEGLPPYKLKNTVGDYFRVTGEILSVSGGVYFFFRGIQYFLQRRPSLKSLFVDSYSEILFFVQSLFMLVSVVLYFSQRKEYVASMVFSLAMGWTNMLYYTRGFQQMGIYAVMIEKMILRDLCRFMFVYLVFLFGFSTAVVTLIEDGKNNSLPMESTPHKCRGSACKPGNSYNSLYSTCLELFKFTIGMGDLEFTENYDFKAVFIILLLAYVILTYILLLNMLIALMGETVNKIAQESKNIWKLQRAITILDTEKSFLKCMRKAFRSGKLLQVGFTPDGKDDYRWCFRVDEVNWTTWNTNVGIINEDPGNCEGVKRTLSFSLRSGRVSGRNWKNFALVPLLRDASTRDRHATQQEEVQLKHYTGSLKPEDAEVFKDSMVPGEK

The compound `CCCCCCC(=O)Nc1nnc(-c2cc(I)c(O)c(OC)c2)s1` [e, N-[5-(4-hydroxy-5-methoxy-3-iodophenyl)-1,3,4-thiadiazole-2-yl]heptanamide] yielded an IC50 in series [1] (setting [6]) of 1.263 ± 0.009 nM.

Compound `O=C(/C=C/c1ccccc1)/C=C/c1ccccc1` [m, (1E, 4E)-1,5-diphenyl penta-1,4-dien-3-one] displayed an IC50 in series [1] (chalcone derivatives) of 7.55 ± 1.9 nM.

On to `CCCCCCCCC(=O)Nc1nnc(-c2ccc(O)c(OC)c2)s1` [b, N-[5-(4-hydroxy-3-methoxyphenyl)-1,3,4-thiadiazole-2-yl]-nonamide], for which the IC50 in series [1] (setting [6]) came out at 0.145 ± 0.051 nM.

As for `CC(C)(C)c1ccc(NC(=O)N2CCN(c3ncccc3Cl)CC2)cc1` [BCTC, N-(4-tertiarybutylphenyl)-4-(3-cholorphyridin-2-yl)tetrahydropyrazine-1(2H)-carbox-amide], in series [2], the aqueous solubility result is “poor”. Moreover, in series [3] (depending on the type of species (rat, mouse or human) of the TRPV1 receptor, literature value, read-out: half maximal inhibitory concentration (IC50), TRPV1 antagonist), the IC50 was 2 to 6 nM. For the same compound, the metabolic stability result in series [4] is on record as “low”. Also, in series [5], the half-life result is “short” and the oral bioavailability entry was “moderate”.

Take `N.N.N.N.N.N.N.N.N.N.N.N.N.N.[Cl-].[Cl-].[Cl-].[Cl-].[Cl-].[Cl-].[O-2].[O-2].[Ru+3].[Ru+3].[Ru+4]` [ruthenium red]: the “selectivity for the TRPV-1 receptor” value in series [3] is on record as “lack selectivity”. Moreover, the IC50 in series [3] (non-competitive antagonist, blocks the ionic channel, literature value, read-out: antagonistic activity IC50) is 170 nM.

The compound `CCCCCC(=O)Nc1nnc(-c2ccc(O)c(OC)c2)s1` [h, N-[5-(4-hydroxy-3-methoxyfenil)-1,3,4-thiadiazole-2-yl]-hexanamide] had an IC50 in series [1] (setting [6]) of 0.298 ± 0.026 nM.

With `[La]` [lanthanum], the “selectivity for the TRPV-1 receptor” value in series [3] was “lack selectivity”. Further, the “concentration at which activity is presented” value in series [3] (non-competitive antagonist, blocks the ionic channel, literature value) was no less than 100 µM.

In turn, `O=C(/C=C/c1ccccc1)c1ccc(Br)cc1` [i] displayed an IC50 in series [1] (chalcone derivatives) of 1.02 ± 0.206 nM.

Turning to `CCCCCCCCC(=O)NCc1cc(I)c(O)c(OC)c1` [5-iodononivamide], the IC50 in series [3] (setting [7]) is 10 nM.

For `O=C(/C=C/c1ccc(O)cc1)/C=C/c1ccc(O)cc1` [n, (1E, 4E)-1,5-(4-hydroxyphenyl) penta-1,4-dien-3-one], the IC50 in series [1] (chalcone derivatives) was determined as 0.184 ± 0.023 nM.

With `CC(C)(C)c1ccc(/C=C/C(=O)Nc2ccc3c(c2)OCCO3)cc1` [(E)-3-(4-t-butylphenyl)-N-(2,3-dihydrobenzo[b][1,4]dioxin-6-yl)acrylamide], the IC50 in series [3] (literature value, read-out: antagonistic activity IC50) was 79 nM.

In the case of `C=C(C)[C@]12C[C@@H](C)[C@@]34O[C@](Cc5ccccc5)(O[C@@H]1[C@@H]3C=C(COC(=O)Cc1ccc(O)c(OC)c1)C[C@]1(O)C(=O)C(C)=C[C@@H]41)O2` [resiniferatoxin], the “agonist potency relative to capsaicin” value in series [3] is reported as 10 times.

`C=C(C)[C@]12C[C@@H](C)[C@@]34O[C@](Cc5ccccc5)(O[C@@H]1[C@@H]3C=C(COC(=O)Cc1cc(I)c(O)c(OC)c1)C[C@]1(O)C(=O)C(C)=C[C@@H]41)O2` [5-iodoresiniferatoxin]: in series [3] (setting [8]), the IC50 is 0.4 nM.

In the case of `CCCCCCCCC(=O)NCc1cc(OC)c(O)cc1I` [6-iodononivamide], the IC50 in series [3] (setting [7]) is 126 nM.

Take `Oc1cc2c(cc1O)CN(C(=S)NCCc1ccc(Cl)cc1)CCC2` [capsazepine]: the “selectivity for the TRPV-1 receptor” value in series [3] is recorded as “low selectivity”. Besides, the IC50 in series [3] (setting [8]) was 56.2 nM. Moreover, the metabolic stability entry in series [4] is given as “metabolically unstable”.

Compound `CCCCCCCC(=O)Nc1nnc(-c2ccc(O)c(OC)c2)s1` [d, N-[5-(4-hydroxy-3-methoxyfenil)-1,3,4-thiadiazole-2-yl]-octanamide] registered an IC50 in series [1] (setting [6]) of 1.09 ± 0.497 nM.

In the case of `CCCCCCCCC(=O)Nc1nnc(-c2cc(I)c(O)c(OC)c2)s1` [a, N-[5-(4-hydroxy-5-methoxy-3-iodophenyl)-1,3,4-thiadiazole-2-yl]-nonamide], in series [1] (setting [6]), the IC50 was 0.046 ± 0.004 nM.

In series [1] (chalcone derivatives), `COc1ccc(/C=C/C(=O)c2ccc(Br)cc2)cc1` [j, (2E)-1-(4-bromophenyl)-3-(4-methoxyphenyl) prop-2-en-1-one] returned an IC50 of 3.89 ± 0.225 nM.

With `COc1cc(C=C(Cl)C(=O)c2ccccc2)ccc1O` (stereo in doubt) [q, (2E)-chloro-3-(4-hydroxy-3-methoxyphenyl)-1-phenyl prop-2-en-1-one], in series [1] (chalcone derivatives), the IC50 was found to be 0.257 ± 0.016 nM.
